System: patients with Type 2 diabetes
Experiment: Clinical efficacy indexes before and after 3 months of Acarbose treatment in naïve patients with Type 2 diabetes, by enterotype
Format: in vivo, human
Conditions: Bacterioide enterotype, After treatment
Description: For naïve patients with Type 2 diabetes, their liver and kidney functions, blood glucose and lipid levels, intestinal hormones, inflammatory factors, and cardiovascular risk-related factors are evaluated before medication. Their stool, urine, and blood samples are retained. […] The patients' blood glucose levels are followed up every month within 3 months, and the medication is adjusted according to the blood glucose level. Three months later, the pre-medication assessment is repeated, and the urine, stool and blood samples are retained.
a) A randomized, opened, positive control method is adopted to collect the naïve patients with Type 2 diabetes and normal controls of their spouses. […] The newly diagnosed patients of Type 2 diabetes without medication receive routine examinations, including the retention of stool and blood samples.
i. Draw venous blood 15 ml under fasting condition, of which, 1.5 ml is used for detection of plasma glucose, 6.5 ml is added to ordinary tubes (including aprotinin, DPPV inhibitor), and 6.5 ml is added to anticoagulant tubes (including heparin and RNA later)
ii. Centrifuge the blood in ordinary tube at 4° C., when serum is separated out, draw about 3 ml, and divide to three 1.5 ml Eppendorf on average, then tighten the tube caps;
iii. Centrifuge the anticoagulation blood immediately at 4° C., to separate out about 3 ml of plasma, then divide to three 1.5 ml imported RNAase free Eppendorf tubes on average, […]

C[C@H]1O[C@H](O[C@H]2[C@H](O)[C@@H](O)[C@@H](O[C@H]3[C@H](O)[C@@H](O)C(O)O[C@@H]3CO)O[C@@H]2CO)[C@H](O)[C@@H](O)[C@@H]1N[C@H]1C=C(CO)[C@@H](O)[C@H](O)[C@H]1O (stereo partly shown) [Acarbose]
AKP Mean: 59.23 | ALB Mean: 42.26 | ALT Mean: 29.43 | APOA Mean: 1.2475 | APOB Mean: 0.9636 | AST Mean: 22.46 | Adipisin Mean: 3174901.441 | Adpn Mean: 5157339.824 | BMI Mean: 25.51 | BW Mean: 71.91 | CP0 Mean: 2.216 | CP30 Mean: 2.7525 | CP60 Mean: 3.71 | CP120 Mean: 5.204 | CP180 Mean: 4.843 | DBIL Mean: 2.966 | DBP Mean: 75.37 | ENDOM Mean: 13.44 | Endothelin Mean: 4.159 | FABP3 Mean: 2351 | FABP4 Mean: 11504.54286 | FGF1M Mean: 22.57 | FGF2M Mean: 12.69 | FGF19M Mean: 19.74 | FGF23M Mean: 37.07 | G30 Mean: 7.623 | G60 Mean: 9.074 | G120 Mean: 9.171 | G180 Mean: 7.941 | GIP0 Mean: 80.26 | GIP30 Mean: 219.1 | GIP60 Mean: 258.945 | GIP120 Mean: 264 | GIP180 Mean: 201.6 | GMCSFM Mean: 64.62 | GO Mean: 6.607 | HB Mean: 140.6 | HBA1C Mean: 6.425 | HDL Mean: 2.989 | HGF Mean: 434.2 | HIP Mean: 98.83 | HOMA.IR Mean: 2.487 | IFNr1 Mean: 42.1 | IL1B Mean: 0.5324 | IL1bM Mean: 14.66 | IL2M Mean: 53.46 | IL4M Mean: 30.73 | IL5M Mean: 38.44 | IL6M Mean: 55.85 | IL6 Mean: 4.846 | IL8 Mean: 11.92 | IL9M Mean: 84.63 | IL10 Mean: 2.301 | IL12 Mean: 10.12 | IL13 Mean: 311.7 | IL15M Mean: 333.3 | IL17AM Mean: 33.74 | IL17EM Mean: 22.24 | IL17FM Mean: 181.4 | IL21 Mean: 29.13 | IL22M Mean: 42.5 | IL23M Mean: 39.35 | IL27 Mean: 61.28 | IL28a Mean: 20.04 | IL31M Mean: 113 | IL33M Mean: 42.13 | INS0 Mean: 8.284 | INS30 Mean: 14.5 | INS60 Mean: 23.7 | INS120 Mean: 30.33 | INS180 Mean: 22.83 | K Mean: 7.893 | LBP Mean: 17.36 | LDL Mean: 1.242 | LEPTIN Mean: 6481 | LPA Mean: 32.841 | Lymph Mean: 28.87 | MCP1 Mean: 256.6 | MIP3A Mean: 43.77 | NEU Mean: 58.47 | NGAL Mean: 125535.0294 | NGF Mean: 1.865 | Na Mean: 136.9 | PAI1 Mean: 52769.94118 | PDGFAA Mean: 4702 | PDGFAABB Mean: 24130.63636 | PP0 Mean: 80.32 | PP30 Mean: 331.7 | PP60 Mean: 330.8 | PP120 Mean: 258.8 | PP180 Mean: 174 | RANTES Mean: 50811.91176 | RBC Mean: 4.832 | RCv Mean: 2.58 | SBP Mean: 120.9 | TBIL Mean: 16.36 | TC Mean: 4.736 | TG Mean: 1.525 | TNFBM Mean: 38.44 | TNFa Mean: 4.773 | TPRO Mean: 70.11 | Trophonin M Mean: 16.15 | WAIST Mean: 88.45 | WBC Mean: 6.913 | WHR Mean: 0.8956 | bun Mean: 329.2 | creatine Mean: 67.61 | crp Mean: 29.96 | egf Mean: 183.4 | fetuinA Mean: 400.9 | fgf1 Mean: 11.66 | fgf2 Mean: 35.4 | fgf21M Mean: 100.1 | fgf21 Mean: 0.37 | monocyte Mean: 5.481 | mpo Mean: 275.8 | oscatinM Mean: 86.94 | pCP0 Mean: 1099 | pCP30 Mean: 1394 | pCP60 Mean: 1891 | pCP120 Mean: 2787 | pCP180 Mean: 2452 | pGLP10 Mean: 4.564 | pGLP130 Mean: 12.21 | pGLP160 Mean: 13.2 | pGLP1120 Mean: 10.47 | pGLP1180 Mean: 7.518 | pHOMA.IR Mean: 2.565 | pgh0 Mean: 55.75 | pgh30 Mean: 70.15 | pgh60 Mean: 66.51 | pgh120 Mean: 58.56 | pgh0180 Mean: 60.3 | pgluc0 Mean: 37.3 | pgluc30 Mean: 43.28 | pgluc60 Mean: 43.96 | pgluc120 Mean: 35.95 | pgluc180 Mean: 32.29 | pins0 Mean: 391 | pins30 Mean: 561.8 | pins60 Mean: 892.8875 | pins120 Mean: 1169 | pins180 Mean: 916.7 | platelet Mean: 214 | ppyy0 Mean: 49.602 | ppyy30 Mean: 55.74 | ppyy60 Mean: 59.37 | ppyy120 Mean: 54.45 | ppyy180 Mean: 56.15 | rGT Mean: 24.82 | resistin Mean: 14639.64706 | sicam1 Mean: 112.3 | svcam1 Mean: 484.8 | urea Mean: 4.731 | vegfa Mean: 475.2 | vegfc Mean: 106.3 | vegfd Mean: 145.4
